{"source": "patent US20230265456A1", "about": "“GENE THERAPY VECTOR EXPRESSING CYP27A1 FOR THE TREATMENT OF CEREBROTENDINOUS XANTHOMATOSIS” (FUNDACION PARA LA INVESTIGACION MEDICA APLICADA, priority 2020, published 2023)", "type_in_all_cases": "in vivo, mouse", "key": {"[1]": {"test_system": "CTX mice", "assay": "Bile acid profile in blood (HPLC-MS/MS)", "method": "(§1) Blood was centrifuged at 10.000 g for 5 min at room temperature. Plasma was treated with 20 μM butylhydroxytoluene (Sigma) in a N2 atmosphere to protect from oxidation before storage at −80° C. in opaque tubes. Sterol extractions were performed using 100 μl of plasma for quantification of cholestanol and 7αC4 concentrations by HPLC-MS/MS as previously described (Chen W, Chiang J Y L. Gene. 2003; 313:71-82). Bile acid (BA) profiling in serum was carried out after acetonitrile precipitation/extraction (Leníček M, et al. J. Chromatogr. B Anal. Technol. Biomed. Life Sci. 2016; 1033-1034:317-320), using an adaptation (Nytofte N S, et al. J. Med. Genet. 2011; 48:219-225). of a previously described method for BA measurement by HPLC-MS/MS (Ye L, et al. J. Chromatogr. B Anal. Technol. Biomed. Life Sci. 2007; 860:10-17) on a 6420 Triple Quad LC/MS device (Agilent Technologies, Santa Clara, Calif.) (Monte M J, et al. J. Hepatol. 2002; 36:534-542). Alanine aminotransferase (ALT) was quantified in 40 μl plasma samples using a Cobas C311 automated chemistry analyser (Roche Diagnostics, Basel, Switzerland).\nIn order to determine if gene therapy is able to achieve sustained metabolic correction in CTX mice, the bile acid profile was analyzed in the blood of animals treated with AAV8-EAAT-CYP27A1 for 5 months at 1.5 or 15×10^12 vg/Kg. The optimal dose of CDCA (0.5% chow weight) was maintained for the same period and used for comparison. The inventors observed an increase of primary and secondary bile acids in mice treated with the vector at both doses (FIG. 12), including CDCA. […] This tendency was more evident in the high dose group and included other species such as tauromuricholic acids (TMCA) and taurohyodeoxycholic acid (THDCA). In sharp contrast, treatment with CDCA caused a drastic increase in this bile acid and its derivatives (1000-fold above normal levels), whereas CA and derived species were not restored."}, "[2]": {"test_system": "CTX mice", "assay": "Hepatomegaly: relative liver weight as percentage of body weight", "conditions": "0.5% diet, 3 months", "method": "FIG. 11. AAV8-EAAT-CYP27A1 reverses hepatomegaly in CTX mice. The AAV8-EAAT-CYP27A1 vector was administered intravenously to 7 week-old CTX mice at the indicated doses. CDCA was mixed in mouse chow at 0.1 or 0.5%. Untreated CTX and WT littermates were included as a reference. Mice were maintained for 3 months and then they were sacrificed for determination of relative liver weight, represented as percentage of body weight. *p<0.05; ***p<0.001 versus untreated CTX mice. Kruskal-Wallis with Dunn's post-test.\nActivation of the xenobiotic response pathways produces hepatomegaly in CTX mice (Repa J J, et al. J. Biol. Chem. 2000; 275:39685-39692)."}, "[3]": {"test_system": "CTX mice", "assay": "Cholestanol and 7αC4 in plasma of treated CTX mice (HPLC-MS/MS)", "source_text": "A mouse strain with truncation of Cyp27a1 exon 8 was obtained from The Jackson Laboratory (Bar Harbor, Me.) (B6.129-Cyp27a1^tm1Et/J, Ref. 009106) (Rosen H, et al. J. Biol. Chem. 1998; 273:14805-14812). Mice homozygous for this mutation (referred hereinafter to as Cyp27a1^−/− or CTX mice) were maintained in a C57BL6/J background by crossing heterozygous individuals. The offspring was genotyped after weaning as indicated by the repository.\nAnimals were group-housed, up to 6 animals per cage (male or female), provided with food and water ad libitum and maintained with a 12 h light-dark cycle. The average age for initiation of studies was 7 weeks. AAV vectors were administered intravenously by retro-orbital injection in a final volume of 150 μl saline solution. Chenodeoxycholic (CDCA) (Sigma-Aldrich, Ref: C9377-25G) was supplemented in standard chow at 0.1, 0.5 and 1 g CDCA/100 g of chow (0.1, 0.5 and 1.0% CDCA diets, respectively). Blood was collected by submandibular venous puncture using 1.3 ml EDTA tubes (Sarstedt, Nimbrecht, Germany) except for end-time points/terminal procedures, in which cardiac puncture was performed in anesthetized mice. Once animals were euthanized, liver samples were collected for histological and gene expression analyses.\nas §1\nThis is the only CTX animal model available to date (Rosen et al. J. Biol. Chem. 273 (1998) 14805-14812).\nBlood was collected 15 days later for determination of cholestanol and 7aC4 in plasma by HPLC/mass spectrometry. […] Of note, neither elevation of liver transaminases nor any other sign of toxicity was detected in any of the treated animals."}, "[4]": {"test_system": "Cyp27a1", "assay": "Endogenous Cyp27a1 mRNA in liver (primers exons 1/2), qPCR", "conditions": "liver 2 weeks after vector or one month after initiation of CDCA diet", "method": "(§2) RNA was extracted from frozen liver samples using the Maxwell® 16 LEV simplyRNA Cells Kit (Promega) following manufacture's recommendations. Two μg of RNA, treated with DNase I, were retro-transcribed using M-MLV retro-transcriptase (Invitrogen™) and random primers (Life Technologies, Thermo). cDNA was amplified and relative gene expression was determined by quantitative polymerase chain reaction (qPCR) using iQ™ SYBR® Green Supermix reagent (Bio-Rad), in CFX96 Touch™ Real-Time PCR Detection System (Bio-Rad). Table 1 contains the sequence of primers specific for the transgene (CYP27A1) and the mouse genes Cyp7a1, Cyp3a11, Cyp27a1 (exons 1/2), Cyp27a1 (exons 8/9) and 36b4 (used as a housekeeping gene).\n(§3) ΔCt values using 36b4 mRNA levels as reference gene were corrected with the efficiency of amplification of each pair of primers and multiplied by 1.000 to facilitate graphical representation.\n(§4) To this aim, mRNA was extracted from liver samples collected 2 weeks after vector administration, or one month after initiation of the CDCA treatment. First, the inventors studied the impact of the treatments on the transcriptional control of the endogenous Cyp27a1 gene. Since CTX mice present truncation of the gene at exon 8 out of 9 (Rosen H, et al. J. Biol. Chem. 1998; 273:14805-14812), the inventors employed primers targeting exons 1/2 in order to detect the wild type or truncated transcripts."}, "[5]": {"test_system": "CTX mice", "assay": "Tolerability: transaminases (ALT), liver histology, body weight, signs of toxicity", "conditions": "diet 1% of chow weight", "protocol": "Blood was centrifuged at 10.000 g for 5 min at room temperature. Plasma was treated with 20 μM butylhydroxytoluene (Sigma) in a N2 atmosphere to protect from oxidation before storage at −80° C. in opaque tubes. […] Alanine aminotransferase (ALT) was quantified in 40 μl plasma samples using a Cobas C311 automated chemistry analyser (Roche Diagnostics, Basel, Switzerland)."}, "[6]": {"test_system": "Cyp7a1", "conditions": "0.5% diet (therapeutic dose), one month", "method": "as §2, §3, §4"}, "[7]": {"test_system": "Cyp3a11", "conditions": "0.5% diet, one month", "method": "as §2, §3, §4"}, "[8]": {"conditions": "diet 0.1, 0.5 or 1% of chow weight, one month"}}, "note": "Entries after “also recorded” stand apart in the source; their conditions may differ.", "data": [{"smiles": "C[C@H](CCC(=O)O)[C@H]1CC[C@H]2[C@@H]3[C@H](O)C[C@@H]4C[C@H](O)CC[C@]4(C)[C@H]3CC[C@]12C", "note": "[CDCA, chenodeoxycholic acid]", "values": [{"measurement": "CA and derived species in blood", "setting": "[1]; 0.5% chow weight, 5 months", "value": "not restored"}, {"measurement": "increase in CDCA and its derivatives in blood above normal levels", "setting": "[1]; 0.5% chow weight, 5 months", "value": 1000, "unit": "fold"}, {"measurement": "CDCA in blood", "setting": "[1]; therapeutic dose (0.5%)", "value": "marked accumulation"}, {"measurement": "hepatomegaly (relative liver weight)", "setting": "[2]", "value": "only partially"}, {"measurement": "7αC4 in plasma", "setting": "[3]; [8]", "value": "dose-dependent reduction"}, {"measurement": "cholestanol in plasma", "setting": "[3]; [8]", "value": "dose-dependent reduction"}, {"measurement": "cholestanol levels in plasma", "setting": "[3]; diet 0.5% or higher, one month", "value": "below WT mice; also recorded: very efficient"}, {"measurement": "7αC4 in plasma", "setting": "[3]; diet 0.5%, one month, male and female", "value": "full normalization; also recorded: not completely normalized"}, {"measurement": "therapeutic dose in the CTX model", "setting": "[3]; percent of chow weight, dose required for normalization of 7αC4", "value": 0.5, "unit": "%"}, {"measurement": "transcription of the endogenous Cyp27a1 gene", "setting": "[4]", "value": "moderate inhibition"}, {"measurement": "body weight", "setting": "[5]", "value": "weight loss"}, {"measurement": "Cyp7a1 expression in liver", "setting": "[6]", "value": "drastic reduction of Cyp7a1 expression, below physiological levels; also recorded: virtually abrogated"}, {"measurement": "Cyp3a11 expression in liver", "setting": "[7]", "value": "only a slight reduction"}]}]}
